Data from PubChem BioAssay (NCI).
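A five-concentration, 48-hour dose response in 96-well plates underlies each endpoint, interpolated linearly between surrounding concentrations. The concentration for 50% growth inhibition is given as GI50. TGI: concentration producing complete growth inhibition.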

Tests used:
Assay in all cases: DTP human tumour cell line panel, 48 h
[1] = test system: NCI-H23 lung
[2] = test system: OVCAR-3 ovarian
[3] = test system: HOP-92 NSCLC
[4] = test system: TK-10 renal
[5] = test system: SF-295 CNS
[6] = test system: UACC-62 melanoma
[7] = test system: KM12 colon
[8] = test system: 786-0 renal
[9] = test system: OVCAR-8 ovarian
[10] = test system: PC-3 prostate

| SMILES | TGI [1] [µM] | TGI [2] [µM] | TGI [3] [µM] | TGI [4] [µM] | TGI [5] [µM] | TGI [6] [µM] | TGI [7] [µM] | TGI [8] [µM] | TGI [9] [µM] | TGI [10] [µM] | GI50 [1] [µM] | GI50 [2] [µM] | GI50 [3] [µM] | GI50 [4] [µM] | GI50 [5] [µM] | GI50 [6] [µM] | GI50 [7] [µM] | GI50 [8] [µM] | GI50 [9] [µM] | GI50 [10] [µM] |
| --- | --- | --- | --- | --- | --- | --- | --- | --- | --- | --- | --- | --- | --- | --- | --- | --- | --- | --- | --- | --- |
| CC(=O)O[C@H]1CCC2[C@@H]3CC[C@]4(C)CC(=O)C=C[C@]4(C)C3CC[C@@]21C (stereo partly drawn) | 53.8 | 31.6 | > 100 | > 100 | > 100 | 30.4 | 44.3 | > 78.2 | 34.2 | 77.1 |  |  |  |  |  |  |  |  |  |  |
| CC1(C)C(=O)/C(=C\c2cccnc2)C[C@]2(C)[C@H]3CC[C@@H]4[C@H]5[C@H](C(=O)/C=C/c6cccnc6)CC[C@]5(C(=O)O)CC[C@@]4(C)[C@]3(C)CC[C@@H]12 | 4.87 | 3.42 | 7.64 | 10.9 | 5.59 | 4.02 | 3.64 | 5.41 | > 100 | 8.58 | 2.06 | 1.76 | 2.31 | 3.57 | 2.22 | 2.03 | 1.73 | 2.36 | 3.5 | 2.41 |
| CC(C)c1c(O)c(O)c2c(c1O)C(=O)C(O)=C1C(C)(C)CCC[C@@]12C | 13.8 | 16.2 | 5.63 | 15.1 | 12 | 16.1 | 12.2 | 13.8 | 10.2 | 11.8 |  |  |  |  |  |  |  |  |  |  |
| COc1ccc(-c2[nH]c3ccc(OC)cc3c2/C=C(\C#N)S(=O)(=O)c2ccccc2)cc1 | > 33.3 | 1.62 | 6.81 | > 100 | > 23.9 | > 61.1 | 7.69 | > 100 | > 35.2 | 23.6 | 0.965 | 0.356 | 0.692 | 4.56 | 0.709 | 0.644 | 0.653 | 2.03 | 2.97 | 0.533 |
| S=c1ssc(N2CCOCC2)c1Cl | > 100 | > 100 | > 100 | > 100 | > 100 | > 100 | > 100 | > 100 | > 100 | > 100 | 29.1 | 39.3 | 78.3 | 16 | 25.8 | 26.5 | 31 | > 100 | > 100 | 40.2 |
| CN1CCN(CCCNc2nc3ccc(Oc4ccc(NC(=O)Nc5cc(C(F)(F)F)ccc5F)cc4)cc3[nH]2)CC1 | 7.9 | 9.65 | 12.1 | 9.07 | 7.98 | 7.66 | 6.74 | 11.9 | 13.5 | 10.6 | 4.03 | 4.49 | 2.91 | 3.93 | 3.67 | 4.1 | 3.44 | 5.26 | 5.27 | 4.82 |
| CCCCCCCCCCCCCCCC(=O)OCC(C[As](=O)(O)O)OC(=O)CCCCCCCCCCCCCCC (stereo not drawn) | > 100 | > 100 | > 100 | > 100 | > 100 | > 100 | > 100 | > 100 | > 100 | > 100 |  |  |  |  |  |  |  |  |  |  |
| COCC[C@H]1CCC/C=C/[C@@H]2C[C@H](O)C[C@H]2[C@H](O)/C=C/C(=O)O1 | 0.858 | 0.273 | 0.888 | 0.63 | > 100 | > 100 | 0.118 | 0.054 | > 100 | > 100 | 0.0858 | 0.0505 | 0.214 | 0.18 | 0.0796 | 0.0425 | 0.034 | 0.0234 | 0.0483 | 0.193 |
| CCNCCNc1cc(-c2ccc(C(F)(F)F)cc2)c(C#N)c2nc3ccccc3n12 | 3.25 | 1 | 2.98 | 3.76 | 3.34 | 1.82 | 3.07 | 3.06 | 3.6 | 2.95 | 1.62 | 0.306 | 1.55 | 2.14 | 1.83 | 0.496 | 1.51 | 1.57 | 1.75 | 1.54 |
| COc1cc2c(cc1OCCCCC(=O)Nc1cc3c4ccccc4ccc3c3ccccc13)N=C[C@@H]1CCCN1C2=O | 47.5 | 10.1 | > 20.9 | 5.73 | 63.1 | 8.24 | 18.5 | 18.8 | 20 | > 65.9 | 20 | 3.02 | 1.45 | 2.33 | 6.98 | 0.658 | 3.87 | 7.21 | 7.27 | 5.4 |
| COc1cc(OC)c(C(=O)/C=C/c2cccc(C(F)(F)F)c2)c(OC)c1 | 3.48 | 6.89 | 3.58 | 6.01 | 6.72 | 2.5 | 6.42 | 5.59 | 5.86 | 6.05 | 1.14 | 2.03 | 1.02 | 1.85 | 1.67 | 0.986 | 1.79 | 1.66 | 1.41 | 1.64 |
| C=C1C(=O)O[C@H]2[C@H]1CC/C(COC(=O)NCCCCNC(=O)OC/C1=C/CC[C@@]3(C)O[C@H]3[C@H]3OC(=O)C(=C)[C@@H]3CC1)=C\CC[C@@]1(C)O[C@@H]21 | 5.54 | 2.01 | 1.06 | 4.12 | 27.4 | 2.5 | 10.5 | 4.26 | 8.26 | 8.05 | 2.18 | 0.693 | 0.287 | 1.61 | 13 | 0.753 | 3.18 | 1.99 | 2.18 | 2.55 |
| COc1ccc(C(=O)c2cc(OC)c(OC)c(OC)c2)cc1/C=C/C(=O)c1ccc(F)cc1 | 31.1 | 15.5 | 34.9 | 30.9 | 37.3 | 5.52 | 8.07 | 5.57 | 37.8 | 13.7 | 6.2 | 4.83 | 2.7 | 4.43 | 7.21 | 2.01 | 2.79 | 2.15 | 3.7 | 3.3 |
| Cc1cc(NC(=S)SCc2ccc(F)cc2)c([N+](=O)[O-])cc1C | 99.4 | 54.6 | 68 | 65.4 | > 100 | 31.3 | 44.6 | > 100 | 38.6 | > 100 |  |  |  |  |  |  |  |  |  |  |
| COc1ccc(C(=O)c2cc(C)c(OC)c(C)c2)cc1OC(=O)CCl | > 100 | 1.08 | > 96.1 | > 100 | > 86 | > 100 | > 65.3 | > 100 | > 100 | > 100 | < 0.0293 | < 0.01 | 12.4 | 34.7 | < 0.0229 | 0.0402 | < 0.01 | 0.0763 | < 0.01 | < 0.021 |
| NC(=O)c1cc(Cl)ccc1NC(=O)/C=C/c1ccccc1 | > 100 | 2.89 | > 43 | > 95.1 | > 25.6 | > 100 | > 100 | > 34.8 | > 100 | > 100 | 5.62 | 1.3 | 9.88 | 7.31 | 2.58 | 2.18 | 2.19 | 3.86 | 4.7 | 3.2 |
| CCc1nc(N)nc(N)c1-c1ccc(NC)c([N+](=O)[O-])c1 | > 100 | > 100 | > 86.8 | > 100 | > 94.7 | > 100 | > 100 | > 100 | > 100 | > 100 |  |  |  |  |  |  |  |  |  |  |
| COc1c(C(=O)/C=C/c2ccccc2)c(O)cc2occc12 | 20.8 | 11.3 | 7.09 | 24.8 | 21.4 | 15.1 | 13.3 | 31.8 | 12.5 | 37.9 | 6.12 | 3.76 | 1.64 | 11.2 | 7.83 | 4.15 | 3.71 | 16.2 | 3.62 | 7.01 |
| COc1ccc(C[N+](C)(C)N)cc1OC | > 100 | > 100 | > 100 | > 100 | > 100 | > 100 | > 100 | > 100 | > 100 | > 100 | > 100 | > 100 | > 100 | > 100 | > 100 |  | > 100 | > 100 | > 100 | > 100 |
| Cc1cc(C)c(NC(=O)c2sc3nc4c(cc3c2N)C(=O)CCC4)c(C)c1 | > 100 | 8.62 | 32.1 | > 87.9 | > 100 | > 100 | > 100 | > 100 | > 100 | > 100 | 3.9 | 2.46 | 0.114 | 4.5 | 0.755 | 1.31 | 2.8 | 6.85 | 5.88 | 1.96 |
| Nc1nc(Nc2cccnc2)sc1C(=O)c1ccccc1F | 12.4 | > 28.1 | > 100 | 49.9 | > 26.9 | 5.34 | 32.5 | > 34.9 | > 100 | > 100 | 2.55 | 2.82 | 4.16 | 4.09 | 2.69 | 1.78 | 3.06 | 3.18 | 3.9 | 3.29 |
| CC/C=C\C[C@H](O)C/C=C1/C(=O)C=C[C@@H]1C/C=C\CCCC(=O)OC | 4.25 | 2.13 | 8.67 | 9.13 | 5.58 | 3.49 | 5.02 | 3.62 | 11.1 | 7.29 | 1.75 | 0.692 | 3.22 | 3.29 | 2.26 | 1.05 | 1.38 | 1.86 | 2.61 | 2.7 |
| Cc1ccc(NC(=O)c2cccc(C(C)(C)C#N)c2)cc1Nc1ccc2ncn(C)c(=O)c2c1 | > 100 | > 100 | 4.98 | > 100 | > 100 |  | > 100 | > 100 | > 100 | > 100 | 0.304 | 13.4 | 0.287 | 2.9 | 6.99 | 0.0275 | 1.66 | 11.6 | 4.96 | 25.9 |
| c1ccc(Sc2ccc(Cc3nc4cc5ccccc5cc4[nH]3)cc2)cc1 | 36.1 | 39.8 | 66.3 | 18 | 34.7 | 27.2 | 46.2 | > 63.8 | > 92.1 | > 64.3 | 7.46 | 8.34 | 6.33 | 0.456 | 2.65 | 4.17 | 2.21 | 4.77 | 7.46 | 4.56 |
| COc1ccc2[nH]c3c4[nH]c5ccc(OC)cc5c4c4c(c3c2c1)C(=O)NC4=O | > 25 | > 25 | > 25 | > 25 | > 25 | > 25 | > 25 | > 25 | > 25 | > 25 | > 14.4 | > 11.2 | > 25 | > 7.63 | > 15.7 | > 25 | 1.76 | > 12.9 | > 13.2 | > 15.7 |
| COc1ccc(/C=C/c2c(C(=O)/C=C/c3ccccc3)c(C)nc3ccccc23)cc1 | 4.19 | 3.12 | 3.84 | 5.73 | 7.46 | 3.11 | 3.52 | 3.31 | 4.1 | 3.81 | 1.73 | 1.65 | 1.4 | 2.55 | 2.62 | 1.61 | 1.77 | 1.76 | 1.75 | 1.66 |
